Earlier results, collected in PMC12181400, “Leveraging viral genome sequences and machine learning models for identification of potentially selective antiviral agents” (Communications Chemistry, 2025).
Counter-ions that a name gives are not always drawn. Like-named read-outs stand apart in the source and are kept apart here.

Columns and labels:
Details in all cases: cited from earlier work
[1] = tested on: cell viability (tox21-ar-mda-kb2-luc-antagonist-p2)
[2] = tested on: cell viability (tox21-ap1-agonist-p1)
[3] = tested on: cell viability (tox21-are-bla-p1)
[4] = tested on: cell viability (tox21-ar-mda-kb2-luc-agonist-p3)
[5] = tested on: cell viability (tox21-car-antagonist-p1)
[6] = tested on: cell viability (tox21-car-agonist-p1)
[7] = curve rank −9 to 9, 0 = inactive, ref NCATS Tox21 public data browser

O=C1C(CC[S+]([O-])c2ccccc2)C(=O)N(c2ccccc2)N1c1ccccc1 (stereo not drawn) [Sulfinpyrazone]
0: tox21-ar-mda-kb2-luc-antagonist-p2-viability (curve rank) [1] | tox21-ap1-agonist-p1-viability (curve rank) [2] | tox21-are-bla-p1-viability (curve rank) [3] | tox21-ar-mda-kb2-luc-agonist-p3-viability (curve rank) [4] | tox21-car-antagonist-p1-viability (curve rank) [5] | tox21-car-agonist-p1-viability (curve rank) [6]

CC(C)(Oc1ccc(Cl)cc1)C(=O)O [Clofibric acid]
0: tox21-ar-mda-kb2-luc-antagonist-p2-viability (curve rank) [1] | tox21-ap1-agonist-p1-viability (curve rank) [2] | tox21-are-bla-p1-viability (curve rank) [3] | tox21-ar-mda-kb2-luc-agonist-p3-viability (curve rank) [4] | tox21-car-antagonist-p1-viability (curve rank) [5] | tox21-car-agonist-p1-viability (curve rank) [6]

CC(C)(Sc1cc(C(C)(C)C)c(O)c(C(C)(C)C)c1)Sc1cc(C(C)(C)C)c(O)c(C(C)(C)C)c1 [Probucol]
0: tox21-ar-mda-kb2-luc-antagonist-p2-viability (curve rank) [1] | tox21-ap1-agonist-p1-viability (curve rank) [2] | tox21-are-bla-p1-viability (curve rank) [3] | tox21-ar-mda-kb2-luc-agonist-p3-viability (curve rank) [4] | tox21-car-antagonist-p1-viability (curve rank) [5] | tox21-car-agonist-p1-viability (curve rank) [6]

O=C(O)CCCCC(=O)O [Hexanedioic acid]
0: tox21-ar-mda-kb2-luc-antagonist-p2-viability (curve rank) [1, 7] | tox21-ap1-agonist-p1-viability (curve rank) [2, 7] | tox21-are-bla-p1-viability (curve rank) [3, 7] | tox21-ar-mda-kb2-luc-agonist-p3-viability (curve rank) [4, 7] | tox21-car-antagonist-p1-viability (curve rank) [5, 7] | tox21-car-agonist-p1-viability (curve rank) [6, 7]

CCCC(=O)Nc1ccc(OCC(O)CNC(C)C)c(C(C)=O)c1 (stereo not drawn) [Acebutolol hydrochloride]
0: tox21-ar-mda-kb2-luc-antagonist-p2-viability (curve rank) [1] | tox21-ap1-agonist-p1-viability (curve rank) [2] | tox21-are-bla-p1-viability (curve rank) [3] | tox21-ar-mda-kb2-luc-agonist-p3-viability (curve rank) [4] | tox21-car-antagonist-p1-viability (curve rank) [5] | tox21-car-agonist-p1-viability (curve rank) [6]

CCS(=O)(=O)CCn1c([N+](=O)[O-])cnc1C [Tinidazole]
0: tox21-ar-mda-kb2-luc-antagonist-p2-viability (curve rank) [1] | tox21-ap1-agonist-p1-viability (curve rank) [2] | tox21-are-bla-p1-viability (curve rank) [3] | tox21-ar-mda-kb2-luc-agonist-p3-viability (curve rank) [4] | tox21-car-antagonist-p1-viability (curve rank) [5] | tox21-car-agonist-p1-viability (curve rank) [6]

CCOC(=O)c1ncn2c1CN(C)C(=O)c1cc(F)ccc1-2 [Flumazenil]
0: tox21-ar-mda-kb2-luc-antagonist-p2-viability (curve rank) [1] | tox21-ap1-agonist-p1-viability (curve rank) [2] | tox21-are-bla-p1-viability (curve rank) [3] | tox21-ar-mda-kb2-luc-agonist-p3-viability (curve rank) [4] | tox21-car-antagonist-p1-viability (curve rank) [5] | tox21-car-agonist-p1-viability (curve rank) [6]

NC(=O)OCC(COC(N)=O)c1ccccc1 [Felbamate]
0: tox21-ar-mda-kb2-luc-antagonist-p2-viability (curve rank) [1, 7] | tox21-ap1-agonist-p1-viability (curve rank) [2, 7] | tox21-are-bla-p1-viability (curve rank) [3, 7] | tox21-ar-mda-kb2-luc-agonist-p3-viability (curve rank) [4, 7] | tox21-car-antagonist-p1-viability (curve rank) [5, 7] | tox21-car-agonist-p1-viability (curve rank) [6, 7]

C[C@](N)(Cc1ccc(O)c(O)c1)C(=O)O [Methyldopa]
0: tox21-ar-mda-kb2-luc-antagonist-p2-viability (curve rank) [1] | tox21-ap1-agonist-p1-viability (curve rank) [2] | tox21-are-bla-p1-viability (curve rank) [3] | tox21-ar-mda-kb2-luc-agonist-p3-viability (curve rank) [4] | tox21-car-antagonist-p1-viability (curve rank) [5] | tox21-car-agonist-p1-viability (curve rank) [6]

Nc1ccc(C(=O)O)cc1 [4-Aminobenzoic acid]
0: tox21-ar-mda-kb2-luc-antagonist-p2-viability (curve rank) [1] | tox21-ap1-agonist-p1-viability (curve rank) [2] | tox21-are-bla-p1-viability (curve rank) [3] | tox21-ar-mda-kb2-luc-agonist-p3-viability (curve rank) [4] | tox21-car-antagonist-p1-viability (curve rank) [5] | tox21-car-agonist-p1-viability (curve rank) [6]

NC(=O)C[S+]([O-])C(c1ccccc1)c1ccccc1 (stereo not drawn) [Modafinil]
0: tox21-ar-mda-kb2-luc-antagonist-p2-viability (curve rank) [1, 7] | tox21-ap1-agonist-p1-viability (curve rank) [2, 7] | tox21-are-bla-p1-viability (curve rank) [3, 7] | tox21-ar-mda-kb2-luc-agonist-p3-viability (curve rank) [4, 7] | tox21-car-antagonist-p1-viability (curve rank) [5, 7] | tox21-car-agonist-p1-viability (curve rank) [6, 7]

CCC1(c2ccccc2)C(=O)NCNC1=O [Primidone]
0: tox21-ar-mda-kb2-luc-antagonist-p2-viability (curve rank) [1] | tox21-ap1-agonist-p1-viability (curve rank) [2] | tox21-are-bla-p1-viability (curve rank) [3] | tox21-ar-mda-kb2-luc-agonist-p3-viability (curve rank) [4] | tox21-car-antagonist-p1-viability (curve rank) [5] | tox21-car-agonist-p1-viability (curve rank) [6]

CCOc1ccc(NC(C)=O)cc1 [Phenacetin]
0: tox21-ar-mda-kb2-luc-antagonist-p2-viability (curve rank) [1] | tox21-ap1-agonist-p1-viability (curve rank) [2] | tox21-are-bla-p1-viability (curve rank) [3] | tox21-ar-mda-kb2-luc-agonist-p3-viability (curve rank) [4] | tox21-car-antagonist-p1-viability (curve rank) [5] | tox21-car-agonist-p1-viability (curve rank) [6]

CCN(CC)CCOC(=O)C(c1ccccc1)c1ccccc1 [Adiphenine hydrochloride]
0: tox21-ar-mda-kb2-luc-antagonist-p2-viability (curve rank) [1] | tox21-ap1-agonist-p1-viability (curve rank) [2] | tox21-are-bla-p1-viability (curve rank) [3] | tox21-ar-mda-kb2-luc-agonist-p3-viability (curve rank) [4] | tox21-car-antagonist-p1-viability (curve rank) [5] | tox21-car-agonist-p1-viability (curve rank) [6]

OCC(O)CN1CCN(c2ccccc2)CC1 (stereo not drawn) [Dropropizine]
0: tox21-ar-mda-kb2-luc-antagonist-p2-viability (curve rank) [1, 7] | tox21-ap1-agonist-p1-viability (curve rank) [2, 7] | tox21-are-bla-p1-viability (curve rank) [3, 7] | tox21-ar-mda-kb2-luc-agonist-p3-viability (curve rank) [4, 7] | tox21-car-antagonist-p1-viability (curve rank) [5, 7] | tox21-car-agonist-p1-viability (curve rank) [6, 7]

Cc1cccc(C(=O)O)c1O [2-Hydroxy-3-methylbenzoic acid]
0: tox21-ar-mda-kb2-luc-antagonist-p2-viability (curve rank) [1] | tox21-ap1-agonist-p1-viability (curve rank) [2] | tox21-are-bla-p1-viability (curve rank) [3] | tox21-ar-mda-kb2-luc-agonist-p3-viability (curve rank) [4] | tox21-car-antagonist-p1-viability (curve rank) [5] | tox21-car-agonist-p1-viability (curve rank) [6]

CC[N+]1(C)CCCC(OC(=O)C(O)(c2ccccc2)c2ccccc2)C1 (stereo not drawn) [Pipenzolate bromide]
0: tox21-ar-mda-kb2-luc-antagonist-p2-viability (curve rank) [1] | tox21-ap1-agonist-p1-viability (curve rank) [2] | tox21-are-bla-p1-viability (curve rank) [3] | tox21-ar-mda-kb2-luc-agonist-p3-viability (curve rank) [4] | tox21-car-antagonist-p1-viability (curve rank) [5] | tox21-car-agonist-p1-viability (curve rank) [6]

Nc1ccc(S(=O)(=O)Nc2ccnn2-c2ccccc2)cc1 [Sulfaphenazole]
0: tox21-ar-mda-kb2-luc-antagonist-p2-viability (curve rank) [1] | tox21-ap1-agonist-p1-viability (curve rank) [2] | tox21-are-bla-p1-viability (curve rank) [3] | tox21-ar-mda-kb2-luc-agonist-p3-viability (curve rank) [4] | tox21-car-antagonist-p1-viability (curve rank) [5] | tox21-car-agonist-p1-viability (curve rank) [6]

CC1(C)Oc2ccc(C#N)cc2[C@@H](N2CCCC2=O)[C@@H]1O [Levcromakalim]
0: tox21-ar-mda-kb2-luc-antagonist-p2-viability (curve rank) [1] | tox21-ap1-agonist-p1-viability (curve rank) [2] | tox21-are-bla-p1-viability (curve rank) [3] | tox21-ar-mda-kb2-luc-agonist-p3-viability (curve rank) [4] | tox21-car-antagonist-p1-viability (curve rank) [5] | tox21-car-agonist-p1-viability (curve rank) [6]

NS(=O)(=O)c1cc2c(cc1Cl)N=C(CSCc1ccccc1)NS2(=O)=O [Benzthiazide]
0: tox21-ar-mda-kb2-luc-antagonist-p2-viability (curve rank) [1] | tox21-ap1-agonist-p1-viability (curve rank) [2] | tox21-are-bla-p1-viability (curve rank) [3] | tox21-ar-mda-kb2-luc-agonist-p3-viability (curve rank) [4] | tox21-car-antagonist-p1-viability (curve rank) [5] | tox21-car-agonist-p1-viability (curve rank) [6]

CN(C)CCn1nnnc1SCC1=C(C(=O)O)N2C(=O)[C@@H](NC(=O)Cc3csc(N)n3)[C@H]2SC1 [Cefotiam hydrochloride]
0: tox21-ar-mda-kb2-luc-antagonist-p2-viability (curve rank) [1] | tox21-ap1-agonist-p1-viability (curve rank) [2] | tox21-are-bla-p1-viability (curve rank) [3] | tox21-ar-mda-kb2-luc-agonist-p3-viability (curve rank) [4] | tox21-car-antagonist-p1-viability (curve rank) [5] | tox21-car-agonist-p1-viability (curve rank) [6]

NC(=O)c1ccccc1O [Salicylamide]
0: tox21-ar-mda-kb2-luc-antagonist-p2-viability (curve rank) [1] | tox21-ap1-agonist-p1-viability (curve rank) [2] | tox21-are-bla-p1-viability (curve rank) [3] | tox21-ar-mda-kb2-luc-agonist-p3-viability (curve rank) [4] | tox21-car-antagonist-p1-viability (curve rank) [5] | tox21-car-agonist-p1-viability (curve rank) [6]

CC(C)(C(=O)c1cccnc1)c1cccnc1 [Metyrapone]
0: tox21-ar-mda-kb2-luc-antagonist-p2-viability (curve rank) [1] | tox21-ap1-agonist-p1-viability (curve rank) [2] | tox21-are-bla-p1-viability (curve rank) [3] | tox21-ar-mda-kb2-luc-agonist-p3-viability (curve rank) [4] | tox21-car-antagonist-p1-viability (curve rank) [5] | tox21-car-agonist-p1-viability (curve rank) [6]
